The term IC50 denotes the point on the concentration scale where inhibition reaches its midpoint.

Where two headings read alike, the source gives them in different places.

For one experiment, the target named is human V2 receptor (Homo sapiens, UniProt P30518). Put plainly: V2 vasopressin receptor functional activity (cAMP accumulation). It is filed as cell-based. Also on record: expressed in transfected cells; host or cells: HEK-293. The protocol: The V2 receptor is also a G-protein coupled receptor which when activated induces an increase in cAMP turnover. Antagonism against the V2 receptor is determined by measuring cAMP accumulation in transfected HEK-293 cells expressing the human V-2 receptor (V2-HEK cells). Compounds are tested for their ability to block the stimulatory effects of vasopressin on cAMP accumulation. The cell content of cAMP is measured by radioimmunoassay using NEN flashplates.
A general note: cAMP levels reflect the balance of adenylyl cyclase and phosphodiesterase activity.

A further experiment has as its target T1, human V1a receptor (Homo sapiens, UniProt P37288).
T1 construct: expressed in transfected cells
Put plainly: cell-based. The procedure: The V1a receptor is a G-protein coupled receptor, which upon activation triggers an increase in intracellular calcium mobilization. To evaluate compounds for their functional V1a receptor activity, HEK-293 cells were transfected with the human V1a receptor (V1a-HEK cells). HEK-293 cells were grown in DMEM (Dulbecco's modified Eagle Media) supplemented with 10% FBS and glutamine. HEK-cells were passed biweekly by trypsinization and seeded into 96 well plates at 33,000 cells per well. HEK-293 cells were transfected with human V1a receptor DNA using DMRIE-C reagent from Life Technologies (Carlsbad, Calif.). Stable lines were generated by selecting cells grown in culture media containing geneticin. After growing in Packard Clear-View black 96 well plates for 4-6 days, V1a-HEK cells were loaded with the calcium-sensitive fluorescence dye, FLUO-3 AM. Changes in intracellular calcium mobilization were measured by quantitating intracellular fluorescence using FLIPR (Fluorometric Imaging Plate Reader; Molecular Devices, Sunnyvale, Calif.). Test compounds were first added to the cells and the resulting changes in fluorescence measured to detect receptor agonistic activity. Five minutes later the cells were challenged with vasopressin to test compounds for their antagonistic activity. Receptor antagonists inhibit the ability of vasopressin to stimulate increases in intracellular fluorescence.

[1] abbreviates: V2-HEK cells, block of vasopressin-stimulated cAMP accumulation, read-out: V2 (functional) IC50.
The mark [2] stands for this setting: V1 (functional) IC50, V1a-HEK cells, inhibition of vasopressin-stimulated intracellular calcium mobilization.
Where [3] appears, read: V1a-HEK cells, inhibition of vasopressin-stimulated intracellular calcium mobilization, read-out: V1 (functional) IC50.

Chain of human V2 receptor (P30518 whole entry): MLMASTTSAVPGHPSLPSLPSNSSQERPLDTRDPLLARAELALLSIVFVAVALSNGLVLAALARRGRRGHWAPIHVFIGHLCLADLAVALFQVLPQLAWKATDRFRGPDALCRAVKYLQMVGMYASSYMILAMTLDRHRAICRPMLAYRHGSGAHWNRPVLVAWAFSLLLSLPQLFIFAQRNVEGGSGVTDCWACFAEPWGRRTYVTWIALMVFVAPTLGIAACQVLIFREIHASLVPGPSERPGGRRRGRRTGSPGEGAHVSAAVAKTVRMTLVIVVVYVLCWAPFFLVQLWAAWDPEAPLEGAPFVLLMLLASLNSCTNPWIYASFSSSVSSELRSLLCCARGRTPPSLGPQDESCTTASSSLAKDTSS
T1 sequence (P37288 whole entry): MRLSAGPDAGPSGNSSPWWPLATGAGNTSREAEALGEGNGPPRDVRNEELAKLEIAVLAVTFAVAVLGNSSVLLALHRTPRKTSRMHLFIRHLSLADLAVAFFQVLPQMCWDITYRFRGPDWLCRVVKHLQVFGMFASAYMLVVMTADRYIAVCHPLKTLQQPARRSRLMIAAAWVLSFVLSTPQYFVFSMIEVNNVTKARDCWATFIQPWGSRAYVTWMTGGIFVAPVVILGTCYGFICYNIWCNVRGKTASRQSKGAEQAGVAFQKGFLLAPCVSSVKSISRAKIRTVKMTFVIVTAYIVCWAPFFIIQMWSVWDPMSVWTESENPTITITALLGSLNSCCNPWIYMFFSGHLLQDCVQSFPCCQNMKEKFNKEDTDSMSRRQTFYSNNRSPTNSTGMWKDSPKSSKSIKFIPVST

With `COc1cc(C(=O)N2CC[C@@]3(CCC(NS(N)(=O)=O)C3)Cc3ccccc32)ccc1NC(=O)c1cc(F)ccc1Cl` (stereo partly drawn) [Cpd 19, (1R)-3-aminosulfonylamino-N-[3-methoxy-4-(2-chloro-5-fluoro-phenylcarbonyl)amino-phenylcarbonyl]-spiro[cyclopentane-1,4′-benzo[b]azepane]], the results for the IC50 at human V2 receptor (setting [1]) and on human V1a receptor (setting [2]) were 120 nM and 100 nM, respectively.
`COc1cc(C(=O)N2CC[C@@]3(CCC(=NO)C3)Cc3ccccc32)ccc1NC(=O)c1cc(F)ccc1Cl` [Cpd 15, (R)-N-[3-methoxy-4-(2-chloro-5-fluoro-phenylcarbonyl)amino-phenylcarbonyl]-3-hydroxyimino-spiro[cyclopentane-1,4′-benzo[b]azepane]]: the figures for the IC50 on human V2 receptor and on human V1a receptor (setting [2]) were 400 nM and 90 nM, respectively.
On to `CON=C1CC[C@@]2(CCN(C(=O)c3ccc(NC(=O)c4cc(F)ccc4Cl)c(OC)c3)c3ccccc3C2)C1` [Cpd 22, (R)—N-[3-methoxy-4-(2-chloro-5-fluoro-phenylcarbonyl)amino-phenylcarbonyl]-3-methoxyimino-spiro[cyclopentane-1,4′-benzo[b]azepane]], for which the results for the IC50 at human V2 receptor (setting [1]) and at human V1a receptor (setting [2]) were 740 nM and 290 nM, respectively.
The matching figures for `COc1cc(C(=O)N2CC[C@@]3(CC[C@H](NS(N)(=O)=O)C3)Cc3ccccc32)ccc1NC(=O)c1cc(F)ccc1Cl` [Cpd 34, (1R,3S)-3-aminosulfonylamino-N-[3-methoxy-4-(2-chloro-5-fluoro-phenylcarbonyl)amino-phenylcarbonyl]-spiro[cyclopentane-1,4′-benzo[b]azepane]]: 250 nM and 250 nM.
As to `COc1cc(C(=O)N2CC[C@]3(C=C(C4=NCCN4)CC3)Cc3ccccc32)ccc1NC(=O)c1cc(F)ccc1Cl` [Cpd 12, (R)-N-[3-methoxy-4-(2-chloro-5-fluoro-phenylcarbonyl)amino-phenylcarbonyl]-3-(4,5-dihydro-1H-imidazol-2-yl)-spiro[cyclopent-2-ene-1,4′-benzo[b]azepane]], the values for the IC50 on human V2 receptor (setting [1]) and at human V1a receptor (setting [3]) were 1100 nM and 320 nM, respectively.
For `COc1cc(C(=O)N2CC[C@@]3(CCC(N4CCCC4)C3)Cc3ccccc32)ccc1NC(=O)c1cc(F)ccc1Cl` (stereo partly drawn) [Cpd 25, (1R)-N-[3-methoxy-4-(2-chloro-5-fluoro-phenylcarbonyl)amino-phenylcarbonyl]-3-(1H-pyrrolidin-1-yl)-spiro[cyclopentane-1,4′-benzo[b]azepane]], the figures for the IC50 at human V2 receptor (setting [1]) and against human V1a receptor were 1000 nM and 810 nM, respectively.
For `COc1cc(C(=O)N2CC[C@@]3(CCC(=CC(=O)O)C3)Cc3ccccc32)ccc1NC(=O)c1cc(F)ccc1Cl` [Cpd 16, (R)-N-[3-methoxy-4-(2-chloro-5-fluoro-phenylcarbonyl)amino-phenylcarbonyl]-3-carboxymethylene-spiro[cyclopentane-1,4′-benzo[b]azepane]] the same measures were 74 nM and 30 nM.
In the case of `COc1cc(C(=O)N2CC[C@]3(C=C(c4ncc[nH]4)CC3)Cc3ccccc32)ccc1NC(=O)c1cc(F)ccc1Cl` [Cpd 14, (R)-N-[3-methoxy-4-(2-chloro-5-fluoro-phenylcarbonyl)amino-phenylcarbonyl]-3-(1H-imidazol-2-yl)-spiro[cyclopent-2-ene-1,4′-benzo[b]azepane]], the figures for the concentration for half-maximal inhibition (IC50) at human V2 receptor (setting [1]) and at human V1a receptor (setting [3]) were 730 nM and 95 nM, respectively.
In the case of `COc1cc(C(=O)N2CC[C@@]3(CCC(=CC(=O)NCCO)C3)Cc3ccccc32)ccc1NC(=O)c1cc(F)ccc1Cl` [Cpd 29, (R)—N-[3-methoxy-4-(2-chloro-5-fluoro-phenylcarbonyl)amino-phenylcarbonyl]-3-(2-hydroxy-ethyl)aminocarbonylmethylene-spiro[cyclopentane-1,4′-benzo[b]azepane]], the IC50 at human V2 receptor (setting [1]) came out at 90 nM; on human V1a receptor (setting [2]), 170 nM.
With `COc1cc(C(=O)N2CC[C@@]3(CCC(N)C3)Cc3ccccc32)ccc1NC(=O)c1cc(F)ccc1Cl` (stereo partly drawn) [Cpd 17, (1R)-3-amino-N-[3-methoxy-4-(2-chloro-5-fluoro-phenylcarbonyl)amino-phenylcarbonyl]-spiro[cyclopentane-1,4′-benzo[b]azepane]], the 50% inhibitory concentration (IC50) stood at 1100 nM on human V2 receptor (setting [1]) and 730 nM against human V1a receptor.
In the case of `COc1cc(C(=O)N2CC[C@@]3(CCC(N4CCN(C)CC4)C3)Cc3ccccc32)ccc1NC(=O)c1cc(F)ccc1Cl` (stereo partly drawn) [Cpd 23, (1R)—N-[3-methoxy-4-(2-chloro-5-fluoro-phenylcarbonyl)amino-phenylcarbonyl]-3-(4-methyl-piperazin-1-yl)-spiro[cyclopentane-1,4′-benzo[b]azepane]], the half-maximal inhibitory concentration (IC50) on human V1a receptor (setting [3]) turned out to be 710 nM.
For the molecule `COc1cc(C(=O)N2CC[C@@]3(CCC(NCCN(C)C)C3)Cc3ccccc32)ccc1NC(=O)c1cc(F)ccc1Cl` (stereo partly drawn) [Cpd 21, (1R)—N-[3-methoxy-4-(2-chloro-5-fluoro-phenylcarbonyl)amino-phenylcarbonyl]-3-(2-dimethylamino-ethyl)amino-spiro[cyclopentane-1,4′-benzo[b]azepane]], the IC50 at human V2 receptor (setting [1]) was 1100 nM; at human V1a receptor, 170 nM.
`COc1cc(C(=O)N2CC[C@@]3(CCC(N4CCOCC4)C3)Cc3ccccc32)ccc1NC(=O)c1cc(F)ccc1Cl` (stereo partly drawn) [Cpd 18, (1R)—N-[3-methoxy-4-(2-chloro-5-fluoro-phenylcarbonyl)amino-phenylcarbonyl]-3-morpholin-4-yl-spiro[cyclopentane-1,4′-benzo[b]azepane]]: the IC50 on human V2 receptor (setting [1]) amounted to 1200 nM; at human V1a receptor it was 240 nM.
For `COc1cc(C(=O)N2CC[C@@]3(CCC(=NOCC(=O)O)C3)Cc3ccccc32)ccc1NC(=O)c1cc(F)ccc1Cl` [Cpd 24, (R)—N-[3-methoxy-4-(2-chloro-5-fluoro-phenylcarbonyl)amino-phenylcarbonyl]-3-carboxymethoxyimino-spiro[cyclopentane-1,4′-benzo[b]azepane]] the same measures were 220 nM and 100 nM.
As to `COc1cc(C(=O)N2CC[C@]3(C=C(C(=O)NS(=O)(=O)N(C)C)CC3)Cc3ccccc32)ccc1NC(=O)c1cc(F)ccc1Cl` [Cpd 36, (R)-N-[3-methoxy-4-(2-chloro-5-fluoro-phenylcarbonyl)amino-phenylcarbonyl]-3-[(dimethylaminosulfonyl)aminocarbonyl]-spiro[cyclopent-2-ene-1,4′-benzo[b]azepane]], the IC50 at human V2 receptor (setting [1]) worked out at 170 nM; against human V1a receptor it was 210 nM.
Consider `NS(=O)(=O)NC(=O)C1=C[C@@]2(CC1)CCN(C(=O)c1ccc(NC(=O)c3cc(F)ccc3Cl)cc1)c1ccccc1C2` [Cpd 52, (R)-3-aminosulfonylaminocarbonyl-N-[4-(2-chloro-5-fluoro-phenylcarbonyl)amino-phenylcarbonyl]-spiro[cyclopent-2-ene-1,4′-benzo[b]azepane]], for which the figures for the IC50 at human V2 receptor (setting [1]) and on human V1a receptor were 35 nM and 77 nM, respectively.
Regarding `CNC(=O)C=C1CC[C@@]2(CCN(C(=O)c3ccc(NC(=O)c4cc(F)ccc4Cl)c(OC)c3)c3ccccc3C2)C1` [Cpd 30, (R)—N-[3-methoxy-4-(2-chloro-5-fluoro-phenylcarbonyl)amino-phenylcarbonyl]-3-methylaminocarbonylmethylene-spiro[cyclopentane-1,4′-benzo[b]azepane]], the half-inhibitory concentration (IC50) was 90 nM on human V2 receptor (setting [1]) and 210 nM on human V1a receptor (setting [2]).
Take `COc1cc(C(=O)N2CC[C@@]3(CCC(N(C)C)C3)Cc3ccccc32)ccc1NC(=O)c1cc(F)ccc1Cl` (stereo partly drawn) [Cpd 20, (1R)—N-[3-methoxy-4-(2-chloro-5-fluoro-phenylcarbonyl)amino-phenylcarbonyl]-3-dimethylamino-spiro[cyclopentane-1,4′-benzo[b]azepane]]: on human V1a receptor (setting [3]), the 50% inhibitory concentration (IC50) amounted to 490 nM.
